Measured values as given in US7157083B2, “Compositions and methods for treating retroviral infections” (priority 1998, dated 2007).

Tested on: ROJO (low passage HIV-1)
Experiment: Study 2 hyaluronidase chronic overlay testing: RT activity after secondary ROJO infection
Format: cell-based
Description: Percent virus control (% VC) in the following tables is the mean RT activity (cpm) as a percentage of a virus control. Percent cell control (% CC) is the mean XTT absorbance as a percentage of a cell control.
Method A. Peripheral blood monocytes were isolated from normal HIV-1 negative donors by plastic adherence following ficall hypaque purification of the buffy coat PBMCs. For isolation of adherent cells, 3×10^6/ml non-PHA stimulated peripheral blood cells were resuspended in Hanks buffered saline (with calcium and magnesium) supplemented with 10% human AB serum, and 200 μl per well placed in a 96 well lat bottomed microtiter plate. The cells were incubated overnight at 37° C., 5% CO2. Non-adherent cells were removed by washing six time with a Ca^++, Mg^++ containing medium. The adherent cells after the final wash were supplemented with RPMI 1640 supplemented with 15% fetal bovine serum (heat inactivated), 2 mM L-glutamine, 100 U/mL penicillin, 100 μg/mL streptomycin and 10 μg/mL gentamycin, and cultured for 7 days. The cultures were washed one final time before addition of compounds to remove any non-adherent cells. The cultures are carefully monitored for confluency prior to assay.
Reverse transcriptase (RT) activity was measured in cell-free supernatants. Tritiated thymidine triphosphate (NEN) (TTP) was resuspended in distilled H2O at […]. Poly rA and oligo dT were prepared as a stock solution which was kept at −20° C. The RT reaction buffer was prepared fresh on a daily basis and consists of 125 μL 1.0 M EGTA, 125 μL d H2O, 110 μL 10% SDS, 50 μL 1.0 M Tris (pH 7.4), 50 μL 1.0 M DTT, and 40μ1.0 M MgCl2. These three solutions were mixed together in a ratio of 2 parts TTP, 1 part poly rA:oligo dT, and 1 part reaction buffer. Ten microliters of this reaction mixture was placed in a round bottom microtiter plate and 15 μL of virus containing supernatant was added and mixed. The plate was incubated at 37° C. in a water bath with a solid support to prevent submersion of the plate and incubated for 60 minutes. Following reaction, the reaction volume was spotted onto pieces of DE81 paper, washed 5 times for 5 minutes each in a 5% sodium phosphate buffer, 2 times for 1 minute each in distilled water, 2 times for 1 minute each in 70% ethanol, and then dried. Opti-Fluor O was added to each sample and incorporated radioactivity was quantitated utilizing a Wallace 1450 Microbetaplus liquid scintillation counter.
Assay method. Seven day old Rojo chronically infected (and uninfected control) PBMCs are pre-treated with two fold dilutions of HLDA-1 for 48 hours. Treated cells are 2× washed with PBS and overlayed onto seven day old macrophages for 72 hours at which time the PBMCs were washed off and replaced with fresh uninfected pha blast PBMCs in the presence of IL-1 (5.0 ng/mL) and IL-2 (20U/mL). Overlayed cells are incubated for 48 hours 50% of cells transferred to a fresh 96 well plate, and then both the original and transfer plate infected with ROJO at a standard MOI. Samples for reverse transcriptase and toxicity testing were processed on day 7 post secondary infection.

## Hyaluronidase
Table 4, 2.5 units/mL, Rojo chronic PBMCs, Macrophage + PBMCs
  RT activity % VC: 207.4%
Table 4, 2.5 units/mL, Rojo chronic PBMCs, Transfer PBMCs
  RT activity % VC: 183.0%
Table 4, 2.5 units/mL, control uninfected PBMCs, Macrophage + PBMCs
  RT activity % VC: 102.3%
Table 4, 2.5 units/mL, control uninfected PBMCs, Transfer PBMCs
  RT activity % VC: 47.3%
Table 4, 3.75 units/mL, Rojo chronic PBMCs, Macrophage + PBMCs
  RT activity % VC: 124.1%
Table 4, 3.75 units/mL, Rojo chronic PBMCs, Transfer PBMCs
  RT activity % VC: 126.5%
Table 4, 3.75 units/mL, control uninfected PBMCs, Macrophage + PBMCs
  RT activity % VC: 111.5%
Table 4, 3.75 units/mL, control uninfected PBMCs, Transfer PBMCs
  RT activity % VC: 34.4%
Table 4, 5 units/mL, Rojo chronic PBMCs, Macrophage + PBMCs
  RT activity % VC: 22.2%
Table 4, 5 units/mL, Rojo chronic PBMCs, Transfer PBMCs
  RT activity % VC: 24.2%
Table 4, 5 units/mL, control uninfected PBMCs, Macrophage + PBMCs
  RT activity % VC: 71.1%
Table 4, 5 units/mL, control uninfected PBMCs, Transfer PBMCs
  RT activity % VC: 18.0%
Table 4, 7.5 units/mL, Rojo chronic PBMCs, Macrophage + PBMCs
  RT activity % VC: 12.7%
Table 4, 7.5 units/mL, Rojo chronic PBMCs, Transfer PBMCs
  RT activity % VC: 21.9%
Table 4, 7.5 units/mL, control uninfected PBMCs, Macrophage + PBMCs
  RT activity % VC: 56.4%
Table 4, 7.5 units/mL, control uninfected PBMCs, Transfer PBMCs
  RT activity % VC: 26.8%
Table 4, 10 units/mL, Rojo chronic PBMCs, Macrophage + PBMCs
  RT activity % VC: 14.8%
Table 4, 10 units/mL, Rojo chronic PBMCs, Transfer PBMCs
  RT activity % VC: 21.5%
Table 4, 10 units/mL, control uninfected PBMCs, Macrophage + PBMCs
  RT activity % VC: 56.2%
Table 4, 10 units/mL, control uninfected PBMCs, Transfer PBMCs
  RT activity % VC: 21.2%
Table 4, 15 units/mL, Rojo chronic PBMCs, Macrophage + PBMCs
  RT activity % VC: 13.3%
Table 4, 15 units/mL, Rojo chronic PBMCs, Transfer PBMCs
  RT activity % VC: 21.9%
Table 4, 15 units/mL, control uninfected PBMCs, Macrophage + PBMCs
  RT activity % VC: 40.2%
Table 4, 15 units/mL, control uninfected PBMCs, Transfer PBMCs
  RT activity % VC: 20.6%
Table 4, 20 units/mL, Rojo chronic PBMCs, Macrophage + PBMCs
  RT activity % VC: 14.2%
Table 4, 20 units/mL, Rojo chronic PBMCs, Transfer PBMCs
  RT activity % VC: 13.6%
Table 4, 20 units/mL, control uninfected PBMCs, Macrophage + PBMCs
  RT activity % VC: 41.9%
Table 4, 20 units/mL, control uninfected PBMCs, Transfer PBMCs
  RT activity % VC: 33.0%
Table 4, 30 units/mL, Rojo chronic PBMCs, Macrophage + PBMCs
  RT activity % VC: 19.9%
Table 4, 30 units/mL, Rojo chronic PBMCs, Transfer PBMCs
  RT activity % VC: 18.0%
Table 4, 30 units/mL, control uninfected PBMCs, Macrophage + PBMCs
  RT activity % VC: 43.8%
Table 4, 30 units/mL, control uninfected PBMCs, Transfer PBMCs
  RT activity % VC: 24.0%
Table 5, 2.5 units/mL, Rojo chronic PBMCs, Macrophage + PBMCs
  RT activity % VC: 164.0%
Table 5, 2.5 units/mL, Rojo chronic PBMCs, Transfer PBMCs
  RT activity % VC: 106.0%
Table 5, 2.5 units/mL, control uninfected PBMCs, Transfer PBMCs
  RT activity % VC: 136.0%
Table 5, 3.75 units/mL, Rojo chronic PBMCs, Macrophage + PBMCs
  RT activity % VC: 191.7%
Table 5, 3.75 units/mL, Rojo chronic PBMCs, Transfer PBMCs
  RT activity % VC: 152.4%
Table 5, 3.75 units/mL, control uninfected PBMCs, Macrophage + PBMCs
  RT activity % VC: 108.5%
Table 5, 3.75 units/mL, control uninfected PBMCs, Transfer PBMCs
  RT activity % VC: 195.0%
Table 5, 5 units/mL, Rojo chronic PBMCs, Macrophage + PBMCs
  RT activity % VC: 253.5%
Table 5, 5 units/mL, control uninfected PBMCs, Macrophage + PBMCs
  RT activity % VC: 184.7%
Table 5, 5 units/mL, control uninfected PBMCs, Transfer PBMCs
  RT activity % VC: 380.0%
